Test [1] has as its target T1, Sentrin-specific protease 8 (Homo sapiens, UniProt Q96LD8).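 Note: luminescence read-out of SENP8 inhibition, dose-response confirmation following an ultra-high-throughput screen.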
T1 sequence (Q96LD8 whole entry): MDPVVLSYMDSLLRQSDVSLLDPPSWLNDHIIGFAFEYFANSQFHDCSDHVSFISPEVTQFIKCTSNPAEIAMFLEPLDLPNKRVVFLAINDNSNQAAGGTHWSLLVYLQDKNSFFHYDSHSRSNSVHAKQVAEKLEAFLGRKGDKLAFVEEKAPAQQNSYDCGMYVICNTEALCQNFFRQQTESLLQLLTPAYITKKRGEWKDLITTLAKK
The format is functional.

In test [2] the test system is INS1. The experiment in a line: beta cell apoptosis inhibitors, cytokine rescue, dose response, luminescence, retest (AID 449756).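 Note: cell death triggered by IL-1 beta plus TNF-alpha plus IFN-gamma mixture; protective hits raise ATP signal compared with cytokine alone wells.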 The format is functional, cell-based. The following applies: Rattus norvegicus.
Test [3] addresses T2, Heat shock protein HSP 90-alpha (Homo sapiens, UniProt P07900). The format is functional, organism-based.
In test [4] the target is T3, Caspase-6 (Homo sapiens, UniProt P55212).
T3 sequence (P55212 whole entry): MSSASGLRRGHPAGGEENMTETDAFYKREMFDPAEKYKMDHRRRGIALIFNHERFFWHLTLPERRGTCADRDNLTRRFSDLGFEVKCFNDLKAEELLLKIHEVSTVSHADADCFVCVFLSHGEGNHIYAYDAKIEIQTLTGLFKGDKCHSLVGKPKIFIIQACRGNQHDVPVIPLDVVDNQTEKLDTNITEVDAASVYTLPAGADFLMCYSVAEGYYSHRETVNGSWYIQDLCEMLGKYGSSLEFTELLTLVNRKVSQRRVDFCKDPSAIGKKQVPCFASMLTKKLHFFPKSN
The experiment in a line: human caspase-6 inhibitors, dose response, biochemical, VEID-R110 fluorescence, cherry-pick (AID 720632).

Test [5] deals with Genome polyprotein (dengue virus type 2, UniProt P29990). The experiment in a line: Dengue-2 NS5 methyltransferase inhibitors, primary screen, biochemical, confirmation dose response (AID 588689). The format is functional.
Test [6] is described as follows: HepG2 cell cytotoxicity, dose response, cytotoxicity control for non-replicating M. tuberculosis project (AID 489018). Type of test: functional. The following applies: Mycobacterium tuberculosis.
A short description of test [7]: inhibitors of SNCA 5'UTR-driven reporter translation, confirmation, H4 neuroglioma cells, luminescence (AID 1988). Type of test: functional, cell-based.
Test [8] is described as follows: inhibitors of firefly luciferase expression or activity, dose response, H4 neuroglioma cells, luminescence (AID 1990). Type of test: functional, cell-based.
The nature of test [9]: non-specific cell cytotoxicity, dose response, cytotoxicity control for PAX8 inhibitor project, plate reader, dry powder samples (AID 743021). Type of test: functional, cell-based.
Test [10] is described as follows: control 3'UTR Renilla luciferase suppression, dose response, counter-screen for Shn3 inhibitor project, cell-based, Clone20-Shn3RL, cherry-picked (AID 624133). The format is functional. Background: A counterscreen serves to expose hits that act by an unwanted route or on another target.
For test [11], the target named is T2, Heat shock protein HSP 90-alpha. In words: Luminescence-based dose response biochemical high throughput screening assay for inhibitors of the Heat Shock Protein 90 (HSP90). [Related pubchem assays: 1831 (Summary AID.), 1846 (Confirmation screen.), 1789 (Primary screen.)].
Test [12] deals with Nonstructural protein 1 (Influenza A virus, UniProt Q194T2). The format is functional, Influenza A virus (A/California/07/2009(H1N1)).
Test [13] deals with Cyclin-dependent kinase 2 (Homo sapiens, UniProt P24941). Type of test: functional.
Test [14] deals with Tyrosine-protein kinase Lyn (Homo sapiens, UniProt P07948). Type of test: functional.
Test [15] addresses RAC-alpha serine/threonine-protein kinase (Homo sapiens, UniProt P31749). Type of test: functional.
For test [16], the target named is High affinity nerve growth factor receptor (Homo sapiens, UniProt P04629). The format is functional.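 Note: NTRK1 tested as one member of a kinome-wide profiling panel.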
Test [17] concerns the target Dual specificity tyrosine-phosphorylation-regulated kinase 3 (Homo sapiens, UniProt O43781). Type of test: functional.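 Note: measured as one member of a broad kinase panel.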
The target in test [18] is MAP kinase-interacting serine/threonine-protein kinase 2 (Homo sapiens, UniProt Q9HBH9). The format is functional.
For test [19], the target named is Serine/threonine-protein kinase TAO1 (Homo sapiens, UniProt Q7L7X3). Type of test: functional.
Test [20] has as its target Lymphokine-activated killer T-cell-originated protein kinase (Homo sapiens, UniProt Q96KB5). Type of test: functional.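 Note: value comes from a kinase panel screen in which TOPK was one of the panel members.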
In test [21] the target is Tyrosine-protein kinase Lck (Homo sapiens, UniProt P06239). Type of test: functional.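 Note: lck was assayed as one member of a kinase panel.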
In test [22] the target is BDNF/NT-3 growth factors receptor (Homo sapiens, UniProt Q16620). Type of test: functional.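 Note: NTRK2 measured as one member of a broad kinome-wide kinase profiling panel.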
The target in test [23] is 3-phosphoinositide-dependent protein kinase 1 (Homo sapiens, UniProt O15530). The format is functional.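 Note: value comes from the Navigating the Kinome panel, PDPK1 member.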
Test [24] addresses Protein-tyrosine kinase 6 (Homo sapiens, UniProt Q13882). Type of test: functional.
Test [25] concerns the target Tyrosine-protein kinase receptor UFO (Homo sapiens, UniProt P30530). The format is functional.
Test [26] has as its target MAP kinase-activated protein kinase 5 (Homo sapiens, UniProt Q8IW41). The format is functional.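 Note: measured as one member of a kinome panel.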
In test [27] the target is Protein kinase C gamma type (Homo sapiens, UniProt P05129). The format is functional.
Test [28] deals with Aurora kinase B (Homo sapiens, UniProt Q96GD4). The format is functional.
Test [29] addresses Vascular endothelial growth factor receptor 1 (Homo sapiens, UniProt P17948). The format is functional.
The target in test [30] is Focal adhesion kinase 1 (Homo sapiens, UniProt Q05397). The format is functional.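 Note: measured as one member of a kinome panel.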
In test [31] the target is Tyrosine-protein kinase Blk (Homo sapiens, UniProt P51451). Type of test: functional.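 Note: obtained as one member of a kinome-wide kinase assay panel.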
Test [32] addresses Homeodomain-interacting protein kinase 4 (Homo sapiens, UniProt Q8NE63). The format is functional.
The target in test [33] is Mitogen-activated protein kinase 1 (Homo sapiens, UniProt P28482). Type of test: functional.
Test [34] deals with Protein kinase C zeta type (Homo sapiens, UniProt Q05513). The format is functional.
The target in test [35] is Serine/threonine-protein kinase pim-1 (Homo sapiens, UniProt P11309). The format is functional.
For test [36], the target named is Mitogen-activated protein kinase 13 (Homo sapiens, UniProt O15264). The format is functional.
Test [37] has as its target Proto-oncogene tyrosine-protein kinase Src (Homo sapiens, UniProt P12931). Type of test: functional.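 Note: SRC entry within a kinome-wide kinase profiling panel.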
In test [38] the target is Protein kinase C delta type (Homo sapiens, UniProt Q05655). The format is functional.
The target of test [39] is Tyrosine-protein kinase Fyn (Homo sapiens, UniProt P06241). Type of test: functional.

Data on five compounds can be found in ChEMBL document CHEMBL1201862, “PubChem BioAssay data set” (2004).

Each structure is given as a SMILES string. Calls of active or inactive are those of the source. Bounds are passed on as bounds.

Sequence of Protein kinase C delta type (Q05655 whole entry): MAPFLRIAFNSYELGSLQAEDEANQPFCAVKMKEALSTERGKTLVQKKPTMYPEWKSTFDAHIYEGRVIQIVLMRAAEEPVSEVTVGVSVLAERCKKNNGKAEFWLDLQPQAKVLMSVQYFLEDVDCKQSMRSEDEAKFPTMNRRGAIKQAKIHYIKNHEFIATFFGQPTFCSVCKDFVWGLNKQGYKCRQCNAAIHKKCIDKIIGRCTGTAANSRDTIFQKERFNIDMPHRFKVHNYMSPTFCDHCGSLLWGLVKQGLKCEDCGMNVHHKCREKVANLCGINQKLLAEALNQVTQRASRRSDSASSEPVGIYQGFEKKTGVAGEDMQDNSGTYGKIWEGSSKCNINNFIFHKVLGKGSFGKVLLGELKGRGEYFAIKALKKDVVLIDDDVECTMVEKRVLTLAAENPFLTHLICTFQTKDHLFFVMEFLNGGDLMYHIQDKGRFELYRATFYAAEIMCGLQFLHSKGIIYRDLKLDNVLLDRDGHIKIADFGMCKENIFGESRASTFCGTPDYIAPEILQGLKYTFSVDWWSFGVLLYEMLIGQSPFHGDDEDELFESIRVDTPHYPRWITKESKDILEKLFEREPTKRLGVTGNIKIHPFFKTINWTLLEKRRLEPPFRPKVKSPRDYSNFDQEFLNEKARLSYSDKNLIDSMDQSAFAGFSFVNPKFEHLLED
Sequence of Mitogen-activated protein kinase 13 (O15264 whole entry): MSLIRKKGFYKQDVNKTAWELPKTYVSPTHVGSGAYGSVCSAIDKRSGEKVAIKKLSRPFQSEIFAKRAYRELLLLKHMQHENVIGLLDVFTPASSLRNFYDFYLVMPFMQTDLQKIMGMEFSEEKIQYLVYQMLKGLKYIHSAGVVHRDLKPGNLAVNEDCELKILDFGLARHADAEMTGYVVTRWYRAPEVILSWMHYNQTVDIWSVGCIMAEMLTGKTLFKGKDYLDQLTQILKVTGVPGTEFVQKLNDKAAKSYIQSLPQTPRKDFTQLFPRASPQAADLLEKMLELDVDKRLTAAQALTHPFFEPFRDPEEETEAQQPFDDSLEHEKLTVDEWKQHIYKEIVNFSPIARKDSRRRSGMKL
Sequence of Tyrosine-protein kinase Lyn (P07948 whole entry): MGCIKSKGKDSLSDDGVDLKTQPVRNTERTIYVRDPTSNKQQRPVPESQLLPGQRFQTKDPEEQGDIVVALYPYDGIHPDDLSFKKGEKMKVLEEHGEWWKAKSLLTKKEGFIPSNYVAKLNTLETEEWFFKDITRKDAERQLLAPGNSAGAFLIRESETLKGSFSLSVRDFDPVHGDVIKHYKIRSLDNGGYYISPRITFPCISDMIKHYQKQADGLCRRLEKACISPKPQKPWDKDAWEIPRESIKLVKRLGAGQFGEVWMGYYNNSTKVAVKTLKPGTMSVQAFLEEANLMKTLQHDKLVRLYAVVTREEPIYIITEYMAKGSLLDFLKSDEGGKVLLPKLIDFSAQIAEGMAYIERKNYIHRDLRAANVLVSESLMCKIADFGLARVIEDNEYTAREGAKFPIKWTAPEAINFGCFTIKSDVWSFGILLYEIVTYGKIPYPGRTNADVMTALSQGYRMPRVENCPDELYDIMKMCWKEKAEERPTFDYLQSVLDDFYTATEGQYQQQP
Sequence of Protein kinase C zeta type (Q05513 whole entry): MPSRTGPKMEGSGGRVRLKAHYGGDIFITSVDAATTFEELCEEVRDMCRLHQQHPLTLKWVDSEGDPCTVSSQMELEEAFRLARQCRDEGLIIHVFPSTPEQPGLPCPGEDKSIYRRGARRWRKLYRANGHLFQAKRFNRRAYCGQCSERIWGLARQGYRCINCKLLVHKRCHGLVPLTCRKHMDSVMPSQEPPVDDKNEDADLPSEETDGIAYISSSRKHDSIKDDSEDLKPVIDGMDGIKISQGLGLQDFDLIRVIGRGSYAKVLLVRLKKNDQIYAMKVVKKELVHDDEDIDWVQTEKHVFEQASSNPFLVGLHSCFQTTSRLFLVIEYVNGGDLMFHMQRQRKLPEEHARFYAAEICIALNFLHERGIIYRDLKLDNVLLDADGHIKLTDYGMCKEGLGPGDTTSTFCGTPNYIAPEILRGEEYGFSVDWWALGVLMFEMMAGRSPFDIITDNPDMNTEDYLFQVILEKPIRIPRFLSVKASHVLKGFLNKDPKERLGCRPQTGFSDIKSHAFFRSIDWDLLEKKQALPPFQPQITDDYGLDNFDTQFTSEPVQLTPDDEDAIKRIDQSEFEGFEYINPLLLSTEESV
Sequence of RAC-alpha serine/threonine-protein kinase (P31749 whole entry): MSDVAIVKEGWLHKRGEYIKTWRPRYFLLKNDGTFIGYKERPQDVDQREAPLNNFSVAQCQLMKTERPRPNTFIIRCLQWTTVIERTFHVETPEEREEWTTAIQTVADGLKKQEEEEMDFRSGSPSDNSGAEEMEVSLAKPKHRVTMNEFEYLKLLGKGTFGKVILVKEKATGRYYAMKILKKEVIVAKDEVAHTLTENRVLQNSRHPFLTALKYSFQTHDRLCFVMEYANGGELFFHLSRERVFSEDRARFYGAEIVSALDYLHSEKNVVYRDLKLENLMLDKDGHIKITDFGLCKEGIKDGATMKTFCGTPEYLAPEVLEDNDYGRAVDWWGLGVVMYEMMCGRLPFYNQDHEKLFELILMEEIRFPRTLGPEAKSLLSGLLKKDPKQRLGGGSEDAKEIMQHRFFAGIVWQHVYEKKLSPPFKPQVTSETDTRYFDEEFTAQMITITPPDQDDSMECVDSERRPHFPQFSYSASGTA
Sequence of Lymphokine-activated killer T-cell-originated protein kinase (Q96KB5 whole entry): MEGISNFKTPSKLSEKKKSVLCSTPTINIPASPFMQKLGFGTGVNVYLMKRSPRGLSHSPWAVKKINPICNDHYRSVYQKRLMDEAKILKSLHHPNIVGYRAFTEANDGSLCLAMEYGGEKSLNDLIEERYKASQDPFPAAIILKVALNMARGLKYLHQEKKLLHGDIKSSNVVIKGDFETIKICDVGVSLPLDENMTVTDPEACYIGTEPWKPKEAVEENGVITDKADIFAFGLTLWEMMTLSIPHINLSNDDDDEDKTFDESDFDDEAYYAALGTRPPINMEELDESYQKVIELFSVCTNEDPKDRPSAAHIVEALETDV
Sequence of Mitogen-activated protein kinase 1 (P28482 whole entry): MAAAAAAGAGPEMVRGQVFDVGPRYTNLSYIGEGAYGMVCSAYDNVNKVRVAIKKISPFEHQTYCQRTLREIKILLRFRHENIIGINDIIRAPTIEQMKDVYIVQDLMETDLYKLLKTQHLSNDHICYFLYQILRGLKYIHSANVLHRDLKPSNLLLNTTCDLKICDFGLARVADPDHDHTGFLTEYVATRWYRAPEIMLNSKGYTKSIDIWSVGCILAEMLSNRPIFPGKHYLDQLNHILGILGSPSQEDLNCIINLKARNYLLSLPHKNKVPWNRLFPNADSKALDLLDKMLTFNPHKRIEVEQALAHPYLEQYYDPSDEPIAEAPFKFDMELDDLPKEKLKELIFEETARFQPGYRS
Sequence of Serine/threonine-protein kinase TAO1 (Q7L7X3 whole entry): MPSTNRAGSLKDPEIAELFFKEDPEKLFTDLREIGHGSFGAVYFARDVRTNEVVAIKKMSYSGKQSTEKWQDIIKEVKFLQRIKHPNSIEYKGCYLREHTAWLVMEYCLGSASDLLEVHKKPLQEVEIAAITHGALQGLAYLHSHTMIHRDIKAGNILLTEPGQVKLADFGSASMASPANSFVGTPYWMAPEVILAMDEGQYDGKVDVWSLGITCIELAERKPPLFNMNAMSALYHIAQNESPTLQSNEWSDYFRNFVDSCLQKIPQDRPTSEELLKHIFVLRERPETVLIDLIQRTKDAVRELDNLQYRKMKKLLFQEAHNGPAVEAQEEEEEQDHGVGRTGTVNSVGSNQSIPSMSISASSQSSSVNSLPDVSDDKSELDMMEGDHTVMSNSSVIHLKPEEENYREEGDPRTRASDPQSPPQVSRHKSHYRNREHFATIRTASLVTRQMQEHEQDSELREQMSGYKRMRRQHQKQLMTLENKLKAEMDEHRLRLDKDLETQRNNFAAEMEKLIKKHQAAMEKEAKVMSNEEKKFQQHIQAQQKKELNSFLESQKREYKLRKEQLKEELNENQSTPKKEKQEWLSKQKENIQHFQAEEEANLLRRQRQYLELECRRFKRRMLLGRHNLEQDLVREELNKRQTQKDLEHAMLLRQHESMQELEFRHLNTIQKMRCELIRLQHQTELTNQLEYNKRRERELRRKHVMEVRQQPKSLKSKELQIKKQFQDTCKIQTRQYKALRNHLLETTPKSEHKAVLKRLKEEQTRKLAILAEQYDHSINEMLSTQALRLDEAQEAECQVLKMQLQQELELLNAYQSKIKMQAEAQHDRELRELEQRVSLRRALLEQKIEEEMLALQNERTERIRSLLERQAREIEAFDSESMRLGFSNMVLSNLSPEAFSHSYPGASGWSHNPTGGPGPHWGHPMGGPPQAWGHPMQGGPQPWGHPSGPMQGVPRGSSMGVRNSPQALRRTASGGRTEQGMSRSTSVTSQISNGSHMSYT

As usually defined, the IC50 is the concentration that gives 50% inhibition. Regarding `Cc1ccc(C(=O)NC2(O)C(=O)c3ccccc3C2=O)cc1C`, the IC50 in test [1] was 4.89 µM (active).
As usually defined, the AC50 is the midpoint of the concentration-response curve, whichever way the signal moves. For orientation: CC50 means the concentration at which the toxic effect on the cells reaches its halfway point. With `O=[N+]([O-])c1c(Nc2ccccn2)cc(Cl)c2nonc12`, the half-maximal activity concentration (AC50) in [2] was 6.13 µM (active); in test [3], 1.93 µM (active); in test [4], 1.06 µM (active). Also, the IC50 in [5] was 20 µM (active). Also, the CC50 in test [6] was 16.7 µM (active).
The EC50 is the midpoint of the concentration-response curve. For the compound `CC[C@@H](C)[C@H](CNC)NC[C@@H](Cc1cccc2ccccc12)NCCc1cccc(C(F)(F)F)c1`, the EC50 in [7] is 7.84 µM (active); in test [8], 8.36 µM (active). The AC50 in [9] was 27.5 µM (active); in test [10], 3.28 µM (active).
As to `Cc1ccc(S(=O)(=O)/N=C2\C=C(Nc3cccc(C(=O)O)c3)C(=O)c3ccccc32)cc1`, the concentration for half-maximal inhibition (IC50) is 0.524 µM (active) in test [11] and 19.9 µM (active) in test [12].
Broadly, the Ki is the dissociation constant of the complex between target and ligand, obtained from inhibition or displacement. For the compound `CC(C)(CO)CNc1nccc(-c2c(-c3ccc(F)cc3)nc3c(CC4CC4)nccn23)n1`, the Ki in test [13] is > 7.94 µM (inactive); in test [14], > 1.58 µM (inactive); in test [15], > 7.94 µM (inactive); in test [16], > 2.51 µM (inactive); in test [17], > 6.31 µM (inactive); in test [18], > 10 µM (inactive). For the same compound, the Ki in test [19] is 7.94 µM (active); in [20] it was 0.316 µM (active); in [21], > 2.51 µM (inactive); in [22], > 5.01 µM (inactive); in [23], > 3.98 µM (inactive); in test [24], > 2.51 µM (inactive). The Ki in test [25] was > 2 µM (inactive); in [26], > 1.58 µM (inactive); in [27] it was > 7.94 µM (inactive); in [28] it was > 6.31 µM (inactive); in [29], > 0.398 µM (inactive); in test [30], > 1.58 µM (inactive). In addition, the Ki in test [31] is > 1.58 µM (inactive); in [32], > 7.94 µM (inactive); in test [33], 6.31 µM (active); in test [34], > 7.94 µM (inactive); in test [35], > 10 µM (inactive); in test [36], > 7.94 µM (inactive). In addition, the Ki in test [37] is > 2 µM (inactive); in [38], > 7.94 µM (inactive); in test [39], > 0.794 µM (inactive).
